Columns and labels:
[1] = target: T1, P. falciparum nicotinamidase (PfNic) (Plasmodium falciparum, UniProt O97284); test: […]-nicotinamide to nicotinic acid conversion (HPLC, scintillation counting) in lysates of parasites pre-treated with […] compound for […] h; format: cell-based
T1 construct: gene PF3D7_0320500
T1 sequence (O97284 1-429): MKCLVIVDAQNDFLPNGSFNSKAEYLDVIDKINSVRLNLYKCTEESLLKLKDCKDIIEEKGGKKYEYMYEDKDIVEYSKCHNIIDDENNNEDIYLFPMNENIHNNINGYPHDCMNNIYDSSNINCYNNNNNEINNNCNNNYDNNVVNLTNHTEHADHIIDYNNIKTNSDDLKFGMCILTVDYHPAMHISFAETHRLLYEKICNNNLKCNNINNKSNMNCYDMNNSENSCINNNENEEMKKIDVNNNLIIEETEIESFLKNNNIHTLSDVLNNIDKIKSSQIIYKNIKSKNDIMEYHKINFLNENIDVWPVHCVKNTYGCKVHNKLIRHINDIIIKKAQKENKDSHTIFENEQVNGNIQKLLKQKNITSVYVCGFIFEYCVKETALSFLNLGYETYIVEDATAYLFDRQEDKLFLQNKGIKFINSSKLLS

purified protein = substrate: NC(=O)c1cccnc1; test: purified protein; format: biochemical, Plasmodium falciparum

With `Cc1cncc(C=O)c1` [5-methyl-nicotinaldehyde] the “14C-nicotinamide to nicotinic acid conversion (HPLC, scintillation counting) in” value [1] was “indicating 5-Me-nicotinaldehyhde was able to inhibit P. falciparum nicotinamidase in the lysate”.

B1: P. falciparum nicotinamidase (PfNic) (Plasmodium falciparum 3D7) (protein)
chain: T1 sequence (O97284 1-429)
notes: 429 amino acids, N-terminal histidine tag (pet28a), expressed in Rosetta (DE3) E. coli
For B1, the Km (purified protein) was 3.0 ± 0.9 µM.
